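Protocol summary: plate cells (96-well), add compound at 5 concentrations, incubate 48 h, interpolate endpoints linearly. GI50 = concentration required for 50% inhibition of growth. TGI: total growth inhibition.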
Experiments:
Experiment in all cases: inhibition of tumour cell growth, NCI panel, 48 h
OVCAR-4 ovarian = tested on: OVCAR-4 ovarian
SN12C renal = tested on: SN12C renal
MDA-MB-435 = tested on: MDA-MB-435
UO-31 renal = tested on: UO-31 renal
OVCAR-8 ovarian = tested on: OVCAR-8 ovarian
HCC-2998 colon = tested on: HCC-2998 colon
UACC-257 melanoma = tested on: UACC-257 melanoma
NCI-H522 lung = tested on: NCI-H522 lung
OVCAR-5 ovarian = tested on: OVCAR-5 ovarian
HCT-116 colon = tested on: HCT-116 colon
HOP-62 NSCLC = tested on: HOP-62 NSCLC
MCF7 breast = tested on: MCF7 breast
CAKI-1 renal = tested on: CAKI-1 renal
ACHN renal = tested on: ACHN renal
SNB-19 CNS = tested on: SNB-19 CNS
RPMI-8226 leukemia = tested on: RPMI-8226 leukemia
NCI-H460 lung = tested on: NCI-H460 lung
K-562 leukemia = tested on: K-562 leukemia
HOP-92 NSCLC = tested on: HOP-92 NSCLC
PC-3 prostate = tested on: PC-3 prostate
RXF 393 renal = tested on: RXF 393 renal
NCI-H23 lung = tested on: NCI-H23 lung
SR leukemia = tested on: SR leukemia
HCT-15 colon = tested on: HCT-15 colon
OVCAR-3 ovarian = tested on: OVCAR-3 ovarian
TK-10 renal = tested on: TK-10 renal
786-0 renal = tested on: 786-0 renal
KM12 colon = tested on: KM12 colon
BT-549 breast = tested on: BT-549 breast
SF-539 CNS = tested on: SF-539 CNS
T-47D breast = tested on: T-47D breast
NCI-H226 lung = tested on: NCI-H226 lung
MOLT-4 leukemia = tested on: MOLT-4 leukemia
A498 renal = tested on: A498 renal
HS 578T breast = tested on: HS 578T breast
NCI/ADR-RES ovarian = tested on: NCI/ADR-RES ovarian
MDA-MB-231 breast = tested on: MDA-MB-231 breast
HT29 colon = tested on: HT29 colon
SF-295 CNS = tested on: SF-295 CNS
SK-MEL-2 melanoma = tested on: SK-MEL-2 melanoma
U251 CNS = tested on: U251 CNS
SNB-75 CNS = tested on: SNB-75 CNS
UACC-62 melanoma = tested on: UACC-62 melanoma
SW-620 colon = tested on: SW-620 colon
EKVX NSCLC = tested on: EKVX NSCLC
SK-OV-3 ovarian = tested on: SK-OV-3 ovarian
M14 melanoma = tested on: M14 melanoma
SK-MEL-5 melanoma = tested on: SK-MEL-5 melanoma
SF-268 CNS = tested on: SF-268 CNS
IGROV1 ovarian = tested on: IGROV1 ovarian
LOX IMVI melanoma = tested on: LOX IMVI melanoma
SK-MEL-28 melanoma = tested on: SK-MEL-28 melanoma
A549 NSCLC = tested on: A549 NSCLC
CCRF-CEM leukemia = tested on: CCRF-CEM leukemia
MALME-3M melanoma = tested on: MALME-3M melanoma
COLO 205 colon = tested on: COLO 205 colon
HL-60(TB) leukemia = tested on: HL-60(TB) leukemia

Compound: COc1cc(/C=C2\C(=O)Nc3ccccc32)cc(OC)c1OC
- GI50 (OVCAR-4 ovarian): 22.1 µM
- TGI (OVCAR-4 ovarian): > 100 µM
- GI50 (SN12C renal): 20.7 µM
- TGI (SN12C renal): > 100 µM
- GI50 (MDA-MB-435): 4.1 µM
- TGI (MDA-MB-435): 45.1 µM
- GI50 (UO-31 renal): 30.4 µM
- TGI (UO-31 renal): > 100 µM
- GI50 (OVCAR-8 ovarian): 25 µM
- TGI (OVCAR-8 ovarian): > 100 µM
- GI50 (HCC-2998 colon): 12.4 µM
- TGI (HCC-2998 colon): 32.8 µM
- GI50 (UACC-257 melanoma): 8.81 µM
- TGI (UACC-257 melanoma): 54 µM
- GI50 (NCI-H522 lung): 14.1 µM
- TGI (NCI-H522 lung): 90.4 µM
- GI50 (OVCAR-5 ovarian): 29.2 µM
- TGI (OVCAR-5 ovarian): 76.2 µM
- GI50 (HCT-116 colon): 17.3 µM
- TGI (HCT-116 colon): > 100 µM
- GI50 (HOP-62 NSCLC): 22.2 µM
- TGI (HOP-62 NSCLC): 62.3 µM
- GI50 (MCF7 breast): 19.9 µM
- TGI (MCF7 breast): > 100 µM
- GI50 (CAKI-1 renal): 18.9 µM
- TGI (CAKI-1 renal): > 100 µM
- GI50 (ACHN renal): 26.4 µM
- TGI (ACHN renal): > 100 µM
- GI50 (SNB-19 CNS): 27.1 µM
- TGI (SNB-19 CNS): > 100 µM
- GI50 (RPMI-8226 leukemia): 12 µM
- TGI (RPMI-8226 leukemia): 61.5 µM
- GI50 (NCI-H460 lung): 11.8 µM
- TGI (NCI-H460 lung): > 100 µM
- GI50 (K-562 leukemia): 4.48 µM
- TGI (K-562 leukemia): > 100 µM
- GI50 (HOP-92 NSCLC): 20.8 µM
- TGI (HOP-92 NSCLC): 71.7 µM
- GI50 (PC-3 prostate): 18.8 µM
- TGI (PC-3 prostate): > 100 µM
- GI50 (RXF 393 renal): 2.37 µM
- TGI (RXF 393 renal): 10.6 µM
- GI50 (NCI-H23 lung): 17.9 µM
- TGI (NCI-H23 lung): 68.3 µM
- GI50 (SR leukemia): 3.83 µM
- TGI (SR leukemia): > 100 µM
- GI50 (HCT-15 colon): 11.6 µM
- TGI (HCT-15 colon): > 100 µM
- GI50 (OVCAR-3 ovarian): 25.4 µM
- TGI (OVCAR-3 ovarian): > 100 µM
- GI50 (TK-10 renal): 29.4 µM
- TGI (TK-10 renal): > 100 µM
- GI50 (786-0 renal): 23.2 µM
- TGI (786-0 renal): > 100 µM
- GI50 (KM12 colon): 11.7 µM
- TGI (KM12 colon): 98 µM
- GI50 (BT-549 breast): 28.7 µM
- TGI (BT-549 breast): > 100 µM
- GI50 (SF-539 CNS): 27.9 µM
- TGI (SF-539 CNS): > 100 µM
- GI50 (T-47D breast): > 100 µM
- TGI (T-47D breast): > 100 µM
- GI50 (NCI-H226 lung): 26.1 µM
- TGI (NCI-H226 lung): > 100 µM
- GI50 (MOLT-4 leukemia): 12 µM
- TGI (MOLT-4 leukemia): 71.3 µM
- GI50 (A498 renal): 27.4 µM
- TGI (A498 renal): > 100 µM
- GI50 (HS 578T breast): 28.7 µM
- TGI (HS 578T breast): > 100 µM
- GI50 (NCI/ADR-RES ovarian): 11.6 µM
- TGI (NCI/ADR-RES ovarian): 45.6 µM
- GI50 (MDA-MB-231 breast): 11.4 µM
- TGI (MDA-MB-231 breast): 78.1 µM
- GI50 (HT29 colon): 19.8 µM
- TGI (HT29 colon): > 100 µM
- GI50 (SF-295 CNS): 28.3 µM
- TGI (SF-295 CNS): > 100 µM
- GI50 (SK-MEL-2 melanoma): 17.5 µM
- TGI (SK-MEL-2 melanoma): 82.6 µM
- GI50 (U251 CNS): 10.9 µM
- TGI (U251 CNS): 63.5 µM
- GI50 (SNB-75 CNS): 15 µM
- TGI (SNB-75 CNS): 58.7 µM
- GI50 (UACC-62 melanoma): 14.4 µM
- TGI (UACC-62 melanoma): > 100 µM
- GI50 (SW-620 colon): 19.9 µM
- TGI (SW-620 colon): > 100 µM
- GI50 (EKVX NSCLC): 18.8 µM
- TGI (EKVX NSCLC): > 100 µM
- GI50 (SK-OV-3 ovarian): 26.1 µM
- TGI (SK-OV-3 ovarian): > 100 µM
- GI50 (M14 melanoma): 21.2 µM
- TGI (M14 melanoma): 79.5 µM
- GI50 (SK-MEL-5 melanoma): 11.1 µM
- TGI (SK-MEL-5 melanoma): 57.1 µM
- GI50 (SF-268 CNS): 0.955 µM
- TGI (SF-268 CNS): > 100 µM
- GI50 (IGROV1 ovarian): 20 µM
- TGI (IGROV1 ovarian): > 100 µM
- GI50 (LOX IMVI melanoma): 16.5 µM
- TGI (LOX IMVI melanoma): > 100 µM
- GI50 (SK-MEL-28 melanoma): 41.8 µM
- TGI (SK-MEL-28 melanoma): > 100 µM
- GI50 (A549 NSCLC): 20.3 µM
- TGI (A549 NSCLC): > 100 µM
- GI50 (CCRF-CEM leukemia): 8.82 µM
- TGI (CCRF-CEM leukemia): > 100 µM
- GI50 (MALME-3M melanoma): 67 µM
- TGI (MALME-3M melanoma): > 100 µM
- GI50 (COLO 205 colon): 14.5 µM
- TGI (COLO 205 colon): 47.9 µM
- GI50 (HL-60(TB) leukemia): 8.15 µM
- TGI (HL-60(TB) leukemia): > 100 µM

— PubChem BioAssay (NCI)
